4 compounds from patent US20220233566A1, “NOVEL CARBONATE COMPOUND HAVING PYRROLOPYRIMIDINE SKELETON OR PHARMACEUTICALLY ACCEPTABLE SALT THEREOF” (TAIHO PHARMACEUTICAL CO., LTD., priority 2019, published 2022) can be followed below.

The test system of data set [1] is human brain tumor cell line (U-87 MG). Description: Evaluation 2 of antitumor effect and toxicity in mouse (U-87 MG subcutaneous transplant). Type of data set: in vivo, BALB/cA Jcl-nu/nu mice. The note with it: Day 6, oral every day, Example 5 14.6 mg/kg/day vs Comparative Example 2 12 mg/kg/day. On the procedure: (§1) The day of grouping mice was determined Day 0.
In order to evaluate “effect versus toxicity”, a ratio based on IR and BWC (effect index) was obtained, and Example 5-compound administration group was compared to Comparative Example 2-compound administration group.
Effect indexes of Comparative Example 2-Compound (I form) and Example 5-compound administration groups on Day 6 are shown in FIG. 3.

Data set [2] in a line: Presence of prodrug in mouse and absorbency (plasma AUC after oral administration). Type of data set: in vivo. The note with it: male, Balb/cA, mouse, 9.9 umol/kg, mice, 9.9 μmol/kg, administered compound itself in plasma, read-out: AUC0-6hr. As to the method: The dosage amounts of the compounds of Comparative Examples 1 to 5 and Examples 1 to 26 are those (mole/10 mL/kg) shown in Tables. Solutions for administration were prepared with an 0.5% aqueous solutions of HPMC so as to satisfy the dosage amounts.
Note that, the “amount of mole/10 mL/kg” means as follows: for example “10 mmol/10 mL/kg” means that 10 mmol of a test compound per body-weight (1 kg) of a mouse was dispersed or dissolved in a solution (10 mL) for administration. The same applies hereinafter.
The solutions for administration prepared above were orally administered to mice (Balb/cA, male) not fasted each by use of an oral administration sonde.
The mice were anesthetized with isoflurane 0.5, 1, 2, 4 and 6 hours after administration and blood was taken from the facial vein by use of a specific needle (animal lancet) and a heparin-coated hematocrit tube.
The blood sampled was immediately centrifuged (13000 rpm, 2 minutes, 4° C.) to prepare the plasma samples. After proteins were removed from the plasma samples, the concentrations of the test compound in the plasma samples were measured by LC/MS/MS.
The value of “area under the curve” (AUC) of drug concentration in blood versus time was calculated using analysis software such as Phoenix (registered trademark) WinNonlin (registered trademark).
In Table 3, “Comparative Example 1” and “Comparative Example 2” represent the “compound (Br form) of Comparative Example 1” and the “compound (I form) of Comparative Example 2”, respectively. In Table 4, “Comparative Example 6” represents the “compound (C1 form) of Comparative Example 6”.

Another data set has as its system A431. Description: Growth suppression activity to human tumor cell line (Evaluation 2). Type of data set: cell-based. The note with it: Homo sapiens, A-431, 72 h, Human epidermoid carcinoma, A431, 3 days. As to the method: (§2) Human tumor cell lines different in type were suspended in mediums, seeded in individual wells of a multi-well plate and cultured. On the day after initiation of culture, serially diluted solutions of a compound were added. Culture was carried out for further 3 days. Cells were counted by a CellTiter-Glo (manufactured by Promega KK) in accordance with the protocol recommended by Promega KK. Cell viability was calculated in accordance with the equation shown below and the concentration (IC50 (nM)) of the compound at which 50% of cell growth is inhibited was obtained.
(§3) T: Intensity of light emitted from a well containing a compound
(§4) C: Intensity of light emitted from a well containing no compound

Another data set has as its system A549. The data set is described as above. The note with it: A549, 72 h, Human lung cancer, A549, 3 days. Type of data set: cell-based. On the procedure: as §2, §3, §4
Another data set deals with H1650. Described as above. Type of data set: cell-based. The note with it: NCI-H1650, 72 h, Human lung cancer, H1650, 3 days. As to the method: as §2, §3, §4
A further data set deals with H2122. The data set is described as above. It counts as cell-based. The note with it: NCI-H2122, 72 h, Human lung cancer, H2122, 3 days. On the procedure: as §2, §3, §4
In the next data set the test system is H358. The data set is described as above. It counts as cell-based. The note with it: NCI-H358, 72 h, Human lung cancer, H358, 3 days. On the procedure:
as §2, §3, §4

A further data set relates to HCC827. Described as above. The note with it: Homo sapiens, HCC827, 72 h, Human lung cancer, HCC827, 3 days. Type of data set: cell-based. On the procedure:
as §2, §3, §4

Another data set deals with RKO. The data set is described as above. It counts as cell-based. The note with it: 72 h, Human colorectal cancer, 3 days. On the procedure: as §2, §3, §4
The test system of a further data set is SK-BR-3. Described as above. The note with it: Homo sapiens, SK-BR-3, 72 h, Human breast cancer, SK-BR-3, 3 days. Type of data set: cell-based. As to the method: as §2, §3, §4
The test system of data set [3] is human brain tumor cell line (U-87 MG). Description: Evaluation 1 of antitumor effect and toxicity in mouse (U-87 MG subcutaneous transplant). It counts as in vivo, BALB/cA Jcl-nu/nu mice. As to the method: as §1
IRs of Comparative Example 2-compound administration group and Example 1-compound administration group on the final day of evaluation (Day 6 in Comparative Example 2 and Day 13 in Example 1) are shown in FIG. 1 and BWC versus elapsed days is shown in FIG. 2.

Data set [4] relates to human hematopoietic organ tumor cell line (MV-4-11). Description: Evaluation 3 of antitumor effect and toxicity in mouse (MV-4-11 subcutaneous transplant). Type of data set: in vivo. On the procedure: as §1
On the final day of evaluation, the blood cell components (lymphocytes: LYMPH (Lymphocytes)) of individual groups were analyzed.

In the next data set the test system is A427. Description: Growth suppression activity to human tumor cell line (Evaluation 3). It counts as cell-based. The note with it: A-427, 72 h; Human lung cancer, A427, 3 days. On the procedure: (§5) Human tumor cell lines different in type were suspended in mediums, seeded in individual wells of a multi-well plate and cultured. On the day after initiation of culture, serially diluted solutions of a compound were added. Culture was carried out for further 3 days. Cells were counted by a CellTiter-Glo (manufactured by Promega KK) in accordance with the protocol recommended by Promega KK. Cell viability was calculated in accordance with the equation shown below and the concentration (IC50 (nM)) of a compound at which 50% of cell growth is inhibited was obtained.
as §3, §4

In another data set the test system is H520. Described as above. Type of data set: cell-based. The note with it: NCI-H520, 72 h; Human lung cancer, H520, 3 days. As to the method:
as §5, §3, §4

Where [5] appears, read: U-87 MG, oral every day from Day 1, Example 1 15.4 mg/kg/day.
Setting [6] is: MV-4-11, oral every day from Day 1, Example 1 10.8 mg/kg/day.

SMILES strings stand for the structures.

For `CC(C)OC(=O)O[C@H]1[C@H](F)[C@H](n2cc(I)c3c(N)ncnc32)O[C@@H]1CO` [Example 5, (2R,3R,4S,5R)-5-(4-Amino-5-iodo-7H-pyrrolo[2,3-d]pyrimidin-7-yl)-4-fluoro-2-(hydroxymethyl)tetrahydrofuran-3-yl isopropyl carbonate], the “effect versus toxicity (effect index, ratio based on IR and BWC)” value in [1] was “high compared to that of Comparative Example 2-compound administration group”.

`Nc1ncnc2c1c(Cl)cn2[C@@H]1O[C@H](CO)[C@@H](O)[C@@H]1F` [Comparative Example 6, (2R,3R,4S,5R)-5-(4-amino-5-chloro-7H-pyrrolo[2,3-d]pyrimidin-7-yl)-4-fluoro-2-(hydroxymethyl) tetrahydrofuran-3-ol]: the AUC(0-t) in data set [2] turned out to be 2.07 µM·h. Further, the half-maximal inhibitory concentration (IC50) in the data set on A431 came to 124 nM; in the data set with A549 it was 54 nM; in the data set with H1650, 31 nM; in the data set with H2122, 58 nM; in the data set with H358, 273 nM; in the data set with HCC827, 795 nM. Besides, the IC50 is 135 nM with RKO and 88 nM in the data set with SK-BR-3.

Consider `Nc1ncnc2c1c(I)cn2[C@@H]1O[C@H](CO)[C@@H](OC(=O)OC2CCCC2)[C@@H]1F` [Example 1, (2R,3R,4S,5R)-5-(4-amino-5-iodo-7H-pyrrolo[2,3-d]pyrimidin-7-yl)-4-fluoro-2-(hydroxymethyl)tetrahydrofuran-3-yl cyclopentyl carbonate], for which, in data set [3] (setting [5]), the “antitumor effect (tumor-growth inhibition rate, IR)” value is on record as “high antitumor effect” and the “effect on body weight (BWC)” value is listed as “mild”. For the same compound, in [3] (U-87 MG, oral every day, Example 1 15.4 mg/kg/day vs Comparative Example 2 12 mg/kg/day), the “continuation of administration compared to Comparative Example 2-compound administration group” value is on record as “longer”. In addition, the “final day of evaluation (administration continued as long as weight loss was acceptable, until 20% or more)” value in data set [3] (oral every day, Comparative Example 2 12 mg/kg/day, Example 1 15.4 mg/kg/day) came to 13 days. Further, in data set [4] (setting [6]), the “antitumor effect (RTV)” value is on record as “remarkable antitumor effect (tumor regression was confirmed)”; the “effect on body weight and hematological toxicity (BWC, lymphocytes T/C %)” value is reported as “low”. The “continuation of administration compared to Comparative Example 2-compound administration group” value in data set [4] (MV-4-11, oral every day, Example 1 10.8 mg/kg/day vs Comparative Example 2 12 mg/kg/day) was “longer”.

Turning to `Nc1ncnc2c1c(I)cn2[C@@H]1O[C@H](CO)C(O)C1(F)F` (stereo partly drawn) [Comparative Example 7, (2R,3R,4S,5R)-5-(4-amino-5-iodo-7H-pyrrolo[2,3-d]pyrimidin-7-yl)-4,4-difluoro-2-(hydroxymethyl) tetrahydrofuran-3-ol, reference compound], the IC50 in the data set on A427 worked out at 1140 nM; with H520 it was 465 nM.

By IC50 is commonly meant the point on the concentration scale where inhibition reaches its midpoint. High values mean weaker potency in that assay, low ones greater potency in that assay.
